Reference: US20240174662A1, “SMALL MOLECULE INHIBITORS OF SALT INDUCIBLE KINASES” (Janssen Biotech, Inc., priority 2021, published 2024)

Molecular target: SIK2 (Homo sapiens (Human), UniProt Q9H0K1)
Test: SIK2 Enzymatic Assay Version 2 (High ATP)
Type: biochemical
Conditions: 3 mM ATP and 200 μM HDAC5tide final, ADP-Glo Max luminescence
Procedure, shortened: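 Run at room temperature; SIK2 enzyme at 6 nM (2× final) preincubated with compound 30 min before reaction. ADP formation detected by ADP-Glo Max (2 h reagent, 1 h detection) with luminescence read-out.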

Sequence of SIK2 (Q9H0K1 whole entry, species assumed): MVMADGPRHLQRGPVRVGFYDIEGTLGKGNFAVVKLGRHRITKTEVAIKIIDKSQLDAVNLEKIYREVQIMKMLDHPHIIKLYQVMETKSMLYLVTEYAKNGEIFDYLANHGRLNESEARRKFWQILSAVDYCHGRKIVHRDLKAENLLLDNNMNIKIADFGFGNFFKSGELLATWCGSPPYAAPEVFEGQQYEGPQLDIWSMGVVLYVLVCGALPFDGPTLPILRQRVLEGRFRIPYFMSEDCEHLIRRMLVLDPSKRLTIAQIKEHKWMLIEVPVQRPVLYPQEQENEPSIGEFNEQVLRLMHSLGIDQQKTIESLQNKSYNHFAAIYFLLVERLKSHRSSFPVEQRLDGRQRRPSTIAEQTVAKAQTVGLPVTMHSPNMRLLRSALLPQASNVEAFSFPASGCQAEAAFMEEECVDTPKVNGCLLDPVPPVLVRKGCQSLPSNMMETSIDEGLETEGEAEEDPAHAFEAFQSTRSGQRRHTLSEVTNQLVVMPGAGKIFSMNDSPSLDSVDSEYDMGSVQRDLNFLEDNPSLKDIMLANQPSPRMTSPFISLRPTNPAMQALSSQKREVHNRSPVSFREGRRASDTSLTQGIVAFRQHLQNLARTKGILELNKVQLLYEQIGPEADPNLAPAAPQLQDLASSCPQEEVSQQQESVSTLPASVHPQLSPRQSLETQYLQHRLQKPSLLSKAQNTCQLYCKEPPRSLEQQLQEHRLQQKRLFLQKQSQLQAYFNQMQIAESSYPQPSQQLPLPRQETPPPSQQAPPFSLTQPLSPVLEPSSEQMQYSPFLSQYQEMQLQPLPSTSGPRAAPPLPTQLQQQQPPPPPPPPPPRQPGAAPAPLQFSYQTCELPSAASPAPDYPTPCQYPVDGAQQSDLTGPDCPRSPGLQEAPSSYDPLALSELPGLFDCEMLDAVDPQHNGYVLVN

Going from `Cc1cc(Nc2cc3cc(-c4c(OC[C@H]5CCN5CCF)cnn4C)ccn3n2)nnc1C` [Example 276, N-(5,6-dimethylpyridazin-3-yl)-5-[4-[[(2R)-1-(2-fluoroethyl)azetidin-2-yl]methoxy]-2-methyl-pyrazol-3-yl]pyrazolo[1,5-a]pyridin-2-amine] to `Cc1cc(Nc2cc3cc(-c4c(OC[C@H]5CCN5CCF)cnn4C)ccn3n2)ncn1` [Example 277, 5-[4-[[(2R)-1-(2-fluoroethyl)azetidin-2-yl]methoxy]-2-methyl-pyrazol-3-yl]-N-(6-methylpyrimidin-4-yl)pyrazolo[1,5-a]pyridin-2-amine], the IC50 rises from 0.9 nM to 1.4 nM (1.6-fold).

First: Cc1cncc(Nc2cc3cc(-c4c(OC[C@H]5CCN5CCF)cnn4C)ccn3n2)n1 [Example 278, 5-[4-[[(2R)-1-(2-fluoroethyl)azetidin-2-yl]methoxy]-2-methyl-pyrazol-3-yl]-N-(6-methylpyrazin-2-yl)pyrazolo[1,5-a]pyridin-2-amine]
Second: Cc1cnc(Nc2cc3cc(-c4c(OC[C@H]5CCN5CCF)cnn4C)ccn3n2)cn1 [Example 279, 5-[4-[[(2R)-1-(2-fluoroethyl)azetidin-2-yl]methoxy]-2-methyl-pyrazol-3-yl]-N-(5-methylpyrazin-2-yl)pyrazolo[1,5-a]pyridin-2-amine]
The IC50 of the first is 1.8-fold lower: 1 nM for the first, 1.8 nM for the second.

`CN1CC[C@H](Oc2cnn(C)c2-c2ccn3nc(Nc4ccc5c(n4)CCOC5)cc3c2)C1` [Example 280, N-[5-[2-methyl-4-[(3S)-1-methylpyrrolidin-3-yl]oxy-pyrazol-3-yl]pyrazolo[1,5-a]pyridin-2-yl]-7,8-dihydro-5H-pyrano[4,3-b]pyridin-2-amine] and `CN1CC[C@H](Oc2cnn(C)c2-c2ccn3nc(Nc4ccnc(C5CC5)n4)cc3c2)C1` [Example 281, N-(2-cyclopropylpyrimidin-4-yl)-5-[2-methyl-4-[(3S)-1-methylpyrrolidin-3-yl]oxy-pyrazol-3-yl]pyrazolo[1,5-a]pyridin-2-amine] are within 1.5-fold of each other in IC50: 35.8 nM for the first, 29.1 nM for the second.

Compared with `Cc1cc(Nc2cc3cc(-c4c(OC[C@H]5CCCN5C)cnn4C)ccn3n2)nc(C)n1` [Example 282, N-(2,6-dimethylpyrimidin-4-yl)-5-[2-methyl-4-[[(2R)-1-methylpyrrolidin-2-yl]methoxy]pyrazol-3-yl]pyrazolo[1,5-a]pyridin-2-amine], `CCN1CCC[C@@H]1COc1cnn(C)c1-c1ccn2nc(Nc3cc(C)nc(C)n3)cc2c1` [Example 289, N-(2,6-dimethylpyrimidin-4-yl)-5-[4-[[(2R)-1-ethylpyrrolidin-2-yl]methoxy]-2-methyl-pyrazol-3-yl]pyrazolo[1,5-a]pyridin-2-amine] is 8.1-fold lower in IC50: 11.3 nM for the first, 1.4 nM for the second. The second is the more potent here.

Compared with `Cc1cc(Nc2cc3cc(-c4c(OC[C@H]5CCCN5C)cnn4C)ccn3n2)nc(C(F)(F)F)n1` [Example 283, 5-[2-methyl-4-[[(2R)-1-methylpyrrolidin-2-yl]methoxy]pyrazol-3-yl]-N-[6-methyl-2-(trifluoromethyl)pyrimidin-4-yl]pyrazolo[1,5-a]pyridin-2-amine], `Cc1cc(Nc2cc3cc(-c4c(OC[C@@H]5CCN5C)cnn4C)ccn3n2)nc(C(F)(F)F)n1` [Example 308, 5-[2-methyl-4-[[(2S)-1-methylazetidin-2-yl]methoxy]pyrazol-3-yl]-N-[6-methyl-2-(trifluoromethyl)pyrimidin-4-yl]pyrazolo[1,5-a]pyridin-2-amine] is 4.5-fold higher in IC50: 3.4 nM for the first, 15.3 nM for the second.

Compared with `CN1CCC[C@@H]1COc1cnn(C)c1-c1ccn2nc(Nc3ccc(C4CC4)nn3)cc2c1` [Example 284, N-(6-cyclopropylpyridazin-3-yl)-5-[2-methyl-4-[[(2R)-1-methylpyrrolidin-2-yl]methoxy]pyrazol-3-yl]pyrazolo[1,5-a]pyridin-2-amine], `Cc1ccc(Nc2cc3cc(-c4c(OC[C@H]5CCCN5C)cnn4C)ccn3n2)nn1` [Example 287, 5-[2-methyl-4-[[(2R)-1-methylpyrrolidin-2-yl]methoxy]pyrazol-3-yl]-N-(6-methylpyridazin-3-yl)pyrazolo[1,5-a]pyridin-2-amine] is 2.3-fold higher in IC50: 16.5 nM for the first, 37.2 nM for the second. The first is the more potent here.

`Cc1cc(Nc2cc3cc(-c4c(OC[C@H]5CCCN5C)cnn4C)ccn3n2)ncn1` [Example 285, 5-[2-methyl-4-[[(2R)-1-methylpyrrolidin-2-yl]methoxy]pyrazol-3-yl]-N-(6-methylpyrimidin-4-yl)pyrazolo[1,5-a]pyridin-2-amine] and `Cc1nccc(Nc2cc3cc(-c4c(OC[C@H]5CCCN5C)cnn4C)ccn3n2)n1` [Example 286, 5-[2-methyl-4-[[(2R)-1-methylpyrrolidin-2-yl]methoxy]pyrazol-3-yl]-N-(2-methylpyrimidin-4-yl)pyrazolo[1,5-a]pyridin-2-amine] are within 1.5-fold of each other in IC50: 18.5 nM for the first, 23.5 nM for the second.

Going from `Cc1cc(Nc2cc3cc(-c4c(OCC56CC(CN5)C6)cnn4C)ccn3n2)nc(C)n1` [Example 288, 5-[4-(3-azabicyclo[2.1.1]hexan-4-ylmethoxy)-2-methyl-pyrazol-3-yl]-N-(2,6-dimethylpyrimidin-4-yl)pyrazolo[1,5-a]pyridin-2-amine] to `Cc1cc(Nc2cc3cc(-c4c(OCC(N)C56CC(C5)C6)cnn4C)ccn3n2)nc(C)n1` (stereo not drawn) [Example 310, 5-[4-[2-amino-2-(3-bicyclo[1.1.1]pentanyl)ethoxy]-2-methyl-pyrazol-3-yl]-N-(2,6-dimethylpyrimidin-4-yl)pyrazolo[1,5-a]pyridin-2-amine], the IC50 falls from 16.8 nM to 4 nM (4.2-fold).

Going from `[2H]C([2H])([2H])N1CC[C@@H]1COc1cnn(C)c1-c1ccn2nc(Nc3cc(C)nc(C)n3)cc2c1` [Example 290, N-(2,6-dimethylpyrimidin-4-yl)-5-[2-methyl-4-[[(2R)-1-(trideuteriomethyl)azetidin-2-yl]methoxy]pyrazol-3-yl]pyrazolo[1,5-a]pyridin-2-amine] to `[2H]C([2H])([2H])C([2H])([2H])N1CC[C@@H]1COc1cnn(C)c1-c1ccn2nc(Nc3cc(C)nc(C)n3)cc2c1` [Example 294, N-(2,6-dimethylpyrimidin-4-yl)-5-[2-methyl-4-[[(2R)-1-(1,1,2,2,2-pentadeuterioethyl)azetidin-2-yl]methoxy]pyrazol-3-yl]pyrazolo[1,5-a]pyridin-2-amine], the IC50 rises from under 0.847 nM to 2.6 nM. The first is the more potent here.

`Cn1ncc(OC[C@H]2CCN2)c1-c1ccn2nc(Nc3cncc(-n4cccn4)n3)cc2c1` [Example 291, 5-[4-[[(2R)-azetidin-2-yl]methoxy]-2-methyl-pyrazol-3-yl]-N-(6-pyrazol-1-ylpyrazin-2-yl)pyrazolo[1,5-a]pyridin-2-amine] and `Cc1cc(Nc2cc3cc(-c4c(O[C@@H]5CCN[C@H]5C)cnn4C)ccn3n2)nc(C)n1` [Example 298, N-(2,6-dimethylpyrimidin-4-yl)-5-[2-methyl-4-[(2S,3R)-2-methylpyrrolidin-3-yl]oxy-pyrazol-3-yl]pyrazolo[1,5-a]pyridin-2-amine] are within 1.5-fold of each other in IC50: 31.2 nM for the first, 39.2 nM for the second.

`Cc1cc(Nc2cc3cc(-c4c(OC[C@H]5CCN5C[C@H](C)O)cnn4C)ccn3n2)nc(C)n1` [Example 292, (2S)-1-[(2R)-2-[[5-[2-[(2,6-dimethylpyrimidin-4-yl)amino]pyrazolo[1,5-a]pyridin-5-yl]-1-methyl-pyrazol-4-yl]oxymethyl]azetidin-1-yl]propan-2-ol] and `Cc1ncc(Nc2cc3cc(-c4c(OC[C@H]5CCN5C[C@H](C)O)cnn4C)ccn3n2)nc1C` [Example 297, (2S)-1-[(2R)-2-[[5-[2-[(5,6-dimethylpyrazin-2-yl)amino]pyrazolo[1,5-a]pyridin-5-yl]-1-methyl-pyrazol-4-yl]oxymethyl]azetidin-1-yl]propan-2-ol] cannot be ordered by IC50: under 0.847 nM for the first, under 0.847 nM for the second.

Compared with `[2H]C([2H])([2H])C([2H])([2H])N1CCC[C@@H]1COc1cnn(C)c1-c1ccn2nc(Nc3cc(C)nc(C)n3)cc2c1` [Example 293, N-(2,6-dimethylpyrimidin-4-yl)-5-[2-methyl-4-[[(2R)-1-(1,1,2,2,2-pentadeuterioethyl)pyrrolidin-2-yl]methoxy]pyrazol-3-yl]pyrazolo[1,5-a]pyridin-2-amine], `Cc1cc(Nc2cc3cc(-c4c(OC[C@H]5C[C@H](C)CN5C)cnn4C)ccn3n2)nc(C)n1` [Example 305, N-(2,6-dimethylpyrimidin-4-yl)-5-[4-[[(2R,4S)-1,4-dimethylpyrrolidin-2-yl]methoxy]-2-methyl-pyrazol-3-yl]pyrazolo[1,5-a]pyridin-2-amine] is higher in IC50: under 0.847 nM for the first, 16.1 nM for the second. The first is the more potent here.

Compared with `Cc1cnc(Nc2cc3cc(-c4c(OC[C@H]5CCN5C[C@H](C)O)cnn4C)ccn3n2)cn1` [Example 296, (2S)-1-[(2R)-2-[[1-methyl-5-[2-[(5-methylpyrazin-2-yl)amino]pyrazolo[1,5-a]pyridin-5-yl]pyrazol-4-yl]oxymethyl]azetidin-1-yl]propan-2-ol], `CCN1CC[C@@H]1COc1cnn(C)c1-c1ccn2nc(Nc3cnc(C(=O)OC)cn3)cc2c1` [Example 311, methyl 5-[[5-[4-[[(2R)-1-ethylazetidin-2-yl]methoxy]-2-methyl-pyrazol-3-yl]pyrazolo[1,5-a]pyridin-2-yl]amino]pyrazine-2-carboxylate] is 4.4-fold lower in IC50: 6.2 nM for the first, 1.4 nM for the second.

Compared with `Cc1cc(Nc2cc3cc(-c4c(OC[C@H]5OCC[C@@H]5O)cnn4C)ccn3n2)nc(C)n1` [Example 300, (2R,3S)-2-[[5-[2-[(2,6-dimethylpyrimidin-4-yl)amino]pyrazolo[1,5-a]pyridin-5-yl]-1-methyl-pyrazol-4-yl]oxymethyl]tetrahydrofuran-3-ol], `Cc1cc(Nc2cc3cc(-c4c(OC[C@@H](O)C5CCC5)cnn4C)ccn3n2)nc(C)n1` [Example 302, (S)-1-cyclobutyl-2-[5-[2-[(2,6-dimethylpyrimidin-4-yl)amino]pyrazolo[1,5-a]pyridin-5-yl]-1-methyl-pyrazol-4-yl]oxy-ethanol] is 2.6-fold higher in IC50: 10.8 nM for the first, 28.3 nM for the second.

First: Cc1cc(Nc2cc3cc(-c4c(OC[C@@H](O)C5(C)CC5)cnn4C)ccn3n2)nc(C)n1 [Example 301, (1S)-2-[5-[2-[(2,6-dimethylpyrimidin-4-yl)amino]pyrazolo[1,5-a]pyridin-5-yl]-1-methyl-pyrazol-4-yl]oxy-1-(1-methylcyclopropyl)ethanol]
Second: Cc1cc(Nc2cc3cc(-c4c(OCC(N)C5(C)CC5)cnn4C)ccn3n2)nc(C)n1 (stereo not drawn) [Example 309, 5-[4-[2-amino-2-(1-methylcyclopropyl)ethoxy]-2-methyl-pyrazol-3-yl]-N-(2,6-dimethylpyrimidin-4-yl)pyrazolo[1,5-a]pyridin-2-amine]
The IC50 of the first is 5.2-fold higher: 15.2 nM for the first, 2.9 nM for the second.
